Values of other authors as cited in patent publication EP1195160B1, “Sustained release trimetazidine pharmaceutical compositions and a method of their preparation” (USV Ltd., priority 2000, dated 2002).
Read-outs that look alike come from different tables or passages of the source.

Experiments:
[1] = oral, immediate release preparation
[2] = 80mg dose, prolonged release coated reservoir system of EP 0 673 649, 12 volunteers
[3] = 20mg, single dose administration
[4] = value from the literature

## COc1ccc(CN2CCNCC2)c(OC)c1OC.Cl.Cl [Trimetazidine dihydrochloride, 1-(2,3,4-trimethoxybenzyl)-piperazine dihydrochloride]
[1]
  T max: around 1.8 ± 0.7 hours
  plasma half life: around 6.0 ± 1.4 hours
[2]
  steady state plasma concentration (Css): around 110 ng/ml
[3]
  maximum plasma concentration Cmax: 53.6 ± 9.0 ng/mL
[4]
  Elimination half life t 1/2: t 1/2 = 6.0 hours.
  Plasma concentration Css: Css = 84ng/ml
  T max: T max = 1.8 ± 0.7 hours.
  Volume of distribution Vd: Vd = 294 litres.
